Experimental data: patent US20260158102A1, “CYCLIC PEPTIDE DERIVATIVE COMPOSITION FOR TREATING OR PREVENTING NEUROPATHIC PAIN AND/OR INFLAMMATORY PAIN” (DKS Co. Ltd., priority 2022, published 2026)

Columns and labels:
[1] = system: STZ-induced diabetic rats; assay: von Frey test in rat STZ-induced diabetes model; assay type: in vivo; conditions: for 50% withdrawal threshold by von Frey test: mean ± SE, n=10
Protocol: The activity of the compound of the present disclosure was evaluated according to the following procedure.
(§1) Compound 9 (50 mg/mL) was diluted with water for injection to obtain a 1 mg/mL administration specimen. For the specimens to be administered at 0.1 mg/mL and 0.01 mg/mL, the specimen to be administered at 1 mg/mL was diluted stepwise with water for injection. Each administration specimen was divided into PP disposable tubes every day and stored in a storehouse (freezer: MDF-MU339H-PJ, PHC Corporation) under the condition of freezing (−30° C. to −20° C., measured value: −26.4 to −24.5° C.). Preparation was performed on the day before the start of administration.
(§2) Water for injection was added to and dissolved in Pregabalin taken out from the capsule to obtain 2 mg/mL. It was prepared before use.
(§3) • Animal species: rat (SPF) • Strain: Crl: CD (SD) • Date of animal acquisition, gender, age in weeks, number of animals acquired, and weight range after 1 day of acquisition • First and second courses: Apr. 6, 2022, male, 7 weeks old, 35 animals, 217 to 237 g • Third and fourth courses: Apr. 13, 2022, male, 7 weeks old, 35 animals, 216 to 235 g • Source: […].
Among the animals having a 50% withdrawal threshold of 8 g or more in the von Frey test measured during the preliminary breeding period, two animals from young animals with animal numbers were assigned to non-diabetes-induced animals, and the remaining animals were assigned to diabetes-induced animals.
Among the diabetes-induced animals, animals having a blood glucose level of 300 mg/dL or less were excluded from the grouping subjects, and were grouped using a computer program (IBUKI, Nihon Bioresearch Center, Inc.) so that the body weight and the average blood glucose level of each group were approximately equal. That is, the animals for the first and second courses and the third and fourth courses were grouped into one non-diabetes animal for Group 1, and 5 […] animals for Groups 2 to 6. Note that the grouping was performed so that there were 4 examples in Group 1 and 10 examples in each of Groups 2 to 6.
• Administration method: Using a syringe (Terumo Corporation) equipped with a 25 G winged injection needle (Terumo Corporation), tail vein administration was performed. Note that a 0.75 mmol/L CAB solution was administered to a non-diabetes-induced control group.
(§4) • Dose volume: calculated at 2 mL/kg based on the body weight on the day of administration. • Number of times of administration: once • Day of administration: 7 days before the day of starting administration of the test substance.
• Administration method: Using a syringe (Terumo Corporation) equipped with a 25 G winged injection needle (Terumo Corporation), tail vein administration was performed. Note that physiological saline was administered to the non-diabetes control group and the diabetes control group.
(§5) • Dose volume: calculated at 1 mL/kg based on the body weight on the day of administration. • Number of times of administration: 9 times • Interval of administration: once every 3 days (evaluation was performed on the day after administration) • Day of starting administration: day 8 of STZ administration (day of STZ administration is counted as day 1).
• Administration method: Using a polypropylene disposable syringe (Terumo Corporation) equipped with a metal oral zonde for a rat (Fuchigami kikai Ltd.), forced oral administration was performed.
• Dose volume: calculated at 10 mL/kg based on the body weight on the day of administration. • Number of times of administration: Administration was performed once on the day of evaluation of neuropathic pain, twice in total, and on the other days of administration, a vehicle for a control substance (water for injection) was orally administered. […]

[2] = Body weight measurement in rat STZ-induced diabetes model; assay type: in vivo; conditions: mean ± SE, in g (unit assumed)
Protocol: as §1, §2, §3, §4, §5
• Dose volume: calculated at 10 mL/kg based on the body weight on the day of administration. • Number of times of administration: Administration was performed once on the day of evaluation of neuropathic pain, twice in total, and on the other days of administration, a vehicle for a control substance (water for injection) was orally administered.
• Measurement was performed every day after the day of STZ administration.
The mean and standard error of each group were calculated for the 50% withdrawal threshold, body weight, and blood glucose level.
The body weight was an integer.
No significant difference test of body weight and blood glucose levels was performed.

In the case of `CC[C@@]1(C)Oc2cc(ccc2O)C[C@H](NC)C(=O)N[C@@H](C(C)C)C(=O)N[C@@H]1C(=O)N[C@@H](CC(=O)O)C(=O)O` [Compound 9], the “50% withdrawal threshold by von Frey test” value ([1]; 0.01 mg/kg iv group, Pre: before STZ administration) is reported as 14.6 ± 0.4 g, the “change in the 50% withdrawal threshold (von Frey test)” value ([1]; 0.01 mg/kg iv group, as compared with the non-diabetes control group (so in the source)) is reported as “no significant change” and the “50% withdrawal threshold by von Frey test” value ([1]; 0.01 mg/kg iv once every 3 days from day 8, day 14 of STZ administration) is reported as 5.7 ± 0.5 g. For the same compound, the “50% withdrawal threshold by von Frey test” value ([1]; 0.01 mg/kg iv once every 3 days from day 8, day 28 of STZ administration) was 3.8 ± 0.2 g, the “50% withdrawal threshold by von Frey test” value ([1]; 0.1 mg/kg iv group, Pre: before STZ administration) was 13.1 ± 0.8 g and the “change in the 50% withdrawal threshold (von Frey test)” value ([1]; 0.1 mg/kg iv group, as compared with the non-diabetes control group (so in the source)) was “no significant change”. The “50% withdrawal threshold by von Frey test” value ([1]; 0.1 mg/kg iv once every 3 days from day 8, day 14 of STZ administration) was 5.7 ± 0.5 g, the “50% withdrawal threshold by von Frey test” value ([1]; 0.1 mg/kg iv once every 3 days from day 8, day 28 of STZ administration) was 4.8 ± 0.4 g and the “50% withdrawal threshold by von Frey test” value ([1]; 1 mg/kg iv group, Pre: before STZ administration) was 13.5 ± 0.7 g. The “change in the 50% withdrawal threshold (von Frey test)” value ([1]; 1 mg/kg iv group, day 28 after STZ administration, as compared with the diabetes control group) was “significant increase”, the “50% withdrawal threshold by von Frey test” value ([1]; 1 mg/kg iv once every 3 days from day 8, day 14 of STZ administration) was 5.8 ± 0.5 g and the “50% withdrawal threshold by von Frey test” value ([1]; 1 mg/kg iv once every 3 days from day 8, day 28 of STZ administration) was 6.7 ± 0.7 † g. The “effect on diabetic peripheral neuropathic pain” value ([1]; STZ-induced diabetic rats, conclusion of the discussion) was “suppressing effect”, the Body weight ([2]; 0.01 mg/kg iv, day 1 of STZ administration) was 295 ± 5 and the Body weight ([2]; 0.01 mg/kg iv, day 2 of STZ administration) was 281 ± 4. The Body weight ([2]; 0.01 mg/kg iv, day 3 of STZ administration) was 277 ± 4, the Body weight ([2]; 0.01 mg/kg iv, day 4 of STZ administration) was 280 ± 5 and the Body weight ([2]; 0.01 mg/kg iv, day 5 of STZ administration) was 282 ± 5. The Body weight ([2]; 0.01 mg/kg iv, day 6 of STZ administration) was 287 ± 5, the Body weight ([2]; 0.01 mg/kg iv, day 7 of STZ administration) was 291 ± 5 and the Body weight ([2]; 0.01 mg/kg iv, day 8 of STZ administration) was 290 ± 6. The Body weight ([2]; 0.01 mg/kg iv, day 9 of STZ administration) was 292 ± 5, the Body weight ([2]; 0.01 mg/kg iv, day 10 of STZ administration) was 297 ± 6 and the Body weight ([2]; 0.01 mg/kg iv, day 11 of STZ administration) was 298 ± 6. For the same compound, the Body weight ([2]; 0.01 mg/kg iv, day 12 of STZ administration) was 302 ± 7, the Body weight ([2]; 0.01 mg/kg iv, day 13 of STZ administration) was 304 ± 6 and the Body weight ([2]; 0.01 mg/kg iv, day 14 of STZ administration) was 306 ± 7. For the same compound, the Body weight ([2]; 0.01 mg/kg iv, day 15 of STZ administration) was 306 ± 8, the Body weight ([2]; 0.01 mg/kg iv, day 16 of STZ administration) was 307 ± 8 and the Body weight ([2]; 0.01 mg/kg iv, day 17 of STZ administration) was 309 ± 8. The Body weight ([2]; 0.01 mg/kg iv, day 18 of STZ administration) was 311 ± 8, the Body weight ([2]; 0.01 mg/kg iv, day 19 of STZ administration) was 309 ± 8 and the Body weight ([2]; 0.01 mg/kg iv, day 20 of STZ administration) was 312 ± 8. For the same compound, the Body weight ([2]; 0.01 mg/kg iv, day 21 of STZ administration) was 312 ± 8, the Body weight ([2]; 0.01 mg/kg iv, day 22 of STZ administration) was 311 ± 9 and the Body weight ([2]; 0.01 mg/kg iv, day 23 of STZ administration) was 312 ± 9. For the same compound, the Body weight ([2]; 0.01 mg/kg iv, day 24 of STZ administration) was 310 ± 9, the Body weight ([2]; 0.01 mg/kg iv, day 25 of STZ administration) was 312 ± 10 and the Body weight ([2]; 0.01 mg/kg iv, day 26 of STZ administration) was 315 ± 10. For the same compound, the Body weight ([2]; 0.01 mg/kg iv, day 27 of STZ administration) was 308 ± 10, the Body weight ([2]; 0.01 mg/kg iv, day 28 of STZ administration) was 312 ± 10 and the Body weight ([2]; 0.01 mg/kg iv, day 29 of STZ administration) was 311 ± 11. The Body weight ([2]; 0.01 mg/kg iv, day 30 of STZ administration) was 313 ± 11, the Body weight ([2]; 0.01 mg/kg iv, day 31 of STZ administration) was 309 ± 11 and the Body weight ([2]; 0.01 mg/kg iv, day 32 of STZ administration) was 310 ± 12. For the same compound, the Body weight ([2]; 0.01 mg/kg iv, day 33 of STZ administration) was 308 ± 12, the Body weight ([2]; 0.01 mg/kg iv, day 34 of STZ administration) was 313 ± 12 and the Body weight ([2]; 0.1 mg/kg iv, day 1 of STZ administration) was 293 ± 4. For the same compound, the Body weight ([2]; 0.1 mg/kg iv, day 2 of STZ administration) was 279 ± 5, the Body weight ([2]; 0.1 mg/kg iv, day 3 of STZ administration) was 275 ± 5 and the Body weight ([2]; 0.1 mg/kg iv, day 4 of STZ administration) was 277 ± 6. The Body weight ([2]; 0.1 mg/kg iv, day 5 of STZ administration) was 280 ± 5, the Body weight ([2]; 0.1 mg/kg iv, day 6 of STZ administration) was 285 ± 5 and the Body weight ([2]; 0.1 mg/kg iv, day 7 of STZ administration) was 289 ± 5. It also gave a Body weight ([2]; 0.1 mg/kg iv, day 8 of STZ administration) of 287 ± 5 and a Body weight ([2]; 0.1 mg/kg iv, day 9 of STZ administration) of 292 ± 5.
